# Measured values taken from paper PMC9606955, “In Vitro Activity of Essential Oils Distilled from Colombian Plants against Candida auris and Other Candida Species with Different Antifungal Susceptibility Profiles” (Molecules, 2022).
# Key:
# C. glabrata LMDM 34 = test: MIC, CLSI M27 broth microdilution; format: cell-based, Candida glabrata; conditions: for MIC: Nakaseomyces glabratus, LMDM34, geometric mean; for MIC / MIC Range: antifungal drugs
# From the text: (§1) The fungal strains used in this study were C. albicans ATCC 10231, C. albicans ATCC 64550, C. parapsilosis ATCC 22019, C. tropicalis ATCC 750, C. tropicalis ATCC 200956 (resistant to azoles and AMB), C. glabrata LMDM 34 (resistant to echinocandins), C. metapsilosis MUM 15.12, C. orthopsilosis MUM 17.13, C. lusitaniae MUM 17.08, C. krusei ATCC 6258 (Issatchenkia orientalis ATCC 6258), and C. auris CDC B11903. Additionally, nine clinical isolates were included: C. parapsilosis Synlab 406 (FLC-resistant) and eight C. auris isolates identified by MALDI-TOF MS (Bruker Daltonics, Bremen, Germany) according to Zhao et al.. These yeasts were cultured on Sabouraud Dextrose Agar (SDA; Sigma-Aldrich, St. Louis, MO, USA) for 24 h at 35 °C.
# (§2) Antifungal susceptibility testing was performed according to Clinical and Laboratory Standards Institute M27, 4th Edition (CLSI standard M27, 4th Edition). Some modifications were applied for evaluation of the antifungal activity of EOs and terpenes. Initially, a screening was carried out to determine the antifungal activity of the EOs and of commercial terpenes. Stock concentrations of EOs and terpenes were prepared at 512 µg/mL and an inoculum of 2.5 × 10^3 CFU/mL of each yeast was prepared in RPMI 1640-MOPS (Sigma- Aldrich St. Louis, MO, USA). Thereafter, 100 µL of each stock solution of EOs or terpenes was dispensed in 96-well microdilution plates (Corning®, Costar®, NY, USA) and 100 µL of each yeast inoculum was added. […] Microdilution plates were incubated at 35 °C and, after 24 h, the presence or absence of growth was visually checked using a manual mirror viewer and then compared with the amount of growth in the control (no EO or terpene). Compounds able to inhibit yeast growth were tested to determine the minimal inhibitory concentration (MIC) as follows: 100 µL of 10 two-fold dilutions of the EOs or commercial terpenes was dispensed in 96-well microplates and the yeast inoculum was added. Final concentrations of the EOs or terpenes ranged from 0.5 µg/mL to 256 µg/mL. Microdilution plates were incubated at 35 °C for 24 h. MICs were visually determined at the lowest concentration that produced visual inhibition compared to the growth control. The assays were performed at least three times in duplicate on different days. The results were expressed as geometric means (GM) and ranges. As an antifungal susceptibility testing control, the activity of ITC and AMB against the reference strains C. krusei ATCC 6258 and C. parapsilosis ATCC 22019 was evaluated in all experiments following the CLSI standard M27, 4th Edition. It was mandatory that the MIC values remained in the accepted range.
# [1] = tested on: C. orthopsilosis MUM 17.13; test: MIC, CLSI M27 broth microdilution; format: cell-based, Candida orthopsilosis; conditions: C. orthopsilosis MUM 17.13, antifungal drugs; for MIC: Lodderomyces orthopsilosis, MUM17.13, geometric mean, read-out: MIC GM
# From the text: as §1, §2
# C. tropicalis ATCC 750 = test: MIC, CLSI M27 broth microdilution; format: cell-based, Candida tropicalis; conditions: antifungal drugs; for MIC: Candida tropicalis, ATCC750, geometric mean
# From the text: as §1, §2
# [2] = tested on: C. tropicalis ATCC 200956; test: MIC, CLSI M27 broth microdilution; format: cell-based, Candida tropicalis; conditions: C. tropicalis ATCC 200956, antifungal drugs; for MIC: Candida tropicalis, ATCC200956, geometric mean, read-out: MIC GM
# From the text: as §1, §2
# C. krusei ATCC 6258 = test: MIC, CLSI M27 broth microdilution; format: cell-based, Candida krusei; conditions: C. krusei ATCC 6258, antifungal drugs; for MIC: Pichia kudriavzevii, ATCC6258, geometric mean, read-out: MIC GM
# From the text: as §1, §2
# C. albicans ATCC 64550 = test: MIC, CLSI M27 broth microdilution; format: cell-based, Candida albicans; conditions: antifungal drugs; for MIC: Candida albicans, ATCC64550, geometric mean
# From the text: as §1, §2
# C. albicans ATCC 10231 = test: MIC, CLSI M27 broth microdilution; format: cell-based, Candida albicans; conditions: antifungal drugs; for MIC: Candida albicans, ATCC10231, geometric mean
# From the text: as §1, §2
# C. lusitaniae MUM 17.08 = test: MIC, CLSI M27 broth microdilution; format: cell-based, Candida lusitaniae; conditions: C. lusitaniae MUM 17.08, antifungal drugs; for MIC: Clavispora lusitaniae, MUM17.08, geometric mean, read-out: MIC GM
# From the text: as §1, §2
# C. auris Ca 17 = test: MIC, CLSI M27 broth microdilution; format: cell-based, Candida auris; conditions: C. auris Ca 17, antifungal drugs; for MIC: Candidozyma auris, CA17, geometric mean, read-out: MIC GM
# From the text: as §1, §2
# C. auris Ca 32 = test: MIC, CLSI M27 broth microdilution; format: cell-based, Candida auris; conditions: C. auris Ca 32, antifungal drugs; for MIC: Candidozyma auris, CA32, geometric mean, read-out: MIC GM
# From the text: as §1, §2
# C. auris Ca 10 = test: MIC, CLSI M27 broth microdilution; format: cell-based, Candida auris; conditions: antifungal drugs; for MIC: Candidozyma auris, CA10, geometric mean
# From the text: as §1, §2
# C. auris Ca 45 = test: MIC, CLSI M27 broth microdilution; format: cell-based, Candida auris; conditions: C. auris Ca 45, antifungal drugs; for MIC: Candidozyma auris, CA45, geometric mean, read-out: MIC GM
# From the text: as §1, §2
# C. auris Ca 41 = test: MIC, CLSI M27 broth microdilution; format: cell-based, Candida auris; conditions: C. auris Ca 41, antifungal drugs; for MIC: Candidozyma auris, CA41, geometric mean, read-out: MIC GM
# From the text: as §1, §2
# C. auris CDC B11903 = test: MIC, CLSI M27 broth microdilution; format: cell-based, Candida auris; conditions: C. auris CDCB11903, antifungal drugs; for MIC: Candidozyma auris, geometric mean, read-out: MIC GM
# From the text: as §1, §2
# C. auris Ca 46 = test: MIC, CLSI M27 broth microdilution; format: cell-based, Candida auris; conditions: C. auris Ca 46, antifungal drugs; for MIC: Candidozyma auris, CA46, geometric mean, read-out: MIC GM
# From the text: as §1, §2
# C. auris Ca 9 = test: MIC, CLSI M27 broth microdilution; format: cell-based, Candida auris; conditions: C. auris Ca 9, antifungal drugs; for MIC: Candidozyma auris, CA9, geometric mean, read-out: MIC GM
# From the text: as §1, §2
# C. auris Ca 1 = test: MIC, CLSI M27 broth microdilution; format: cell-based, Candida auris; conditions: C. auris Ca 1, antifungal drugs; for MIC: Candidozyma auris, CA1, geometric mean, read-out: MIC GM
# From the text: as §1, §2
# [3] = tested on: C. parapsilosis Synlab 406; test: MIC, CLSI M27 broth microdilution; format: cell-based, Candida parapsilosis; conditions: C. parapsilosis Synlab 406, antifungal drugs; for MIC: Lodderomyces parapsilosis, SYNLAB406, geometric mean, read-out: MIC GM
# From the text: as §1, §2
# [4] = tested on: C. parapsilosis ATCC 22019; test: MIC, CLSI M27 broth microdilution; format: cell-based, Candida parapsilosis; conditions: antifungal drugs; for MIC: Lodderomyces parapsilosis, ATCC22019, geometric mean
# From the text: as §1, §2
# [5] = tested on: C. metapsilosis MUM 15.12; test: MIC, CLSI M27 broth microdilution; format: cell-based, Candida metapsilosis; conditions: C. metapsilosis MUM 15.12, antifungal drugs; for MIC: Lodderomyces metapsilosis, MUM15.12, geometric mean, read-out: MIC GM
# From the text: as §1, §2
# C. auris = test: Screening of antifungal activity at 256 µg/mL against C. auris; format: cell-based, Candida auris; conditions: screening at 256 µg/mL, clinical isolates of C. auris
# From the text: as §1
# Antifungal susceptibility testing was performed according to Clinical and Laboratory Standards Institute M27, 4th Edition (CLSI standard M27, 4th Edition). Some modifications were applied for evaluation of the antifungal activity of EOs and terpenes. Initially, a screening was carried out to determine the antifungal activity of the EOs and of commercial terpenes. Stock concentrations of EOs and terpenes were prepared at 512 µg/mL and an inoculum of 2.5 × 10^3 CFU/mL of each yeast was prepared in RPMI 1640-MOPS (Sigma- Aldrich St. Louis, MO, USA). Thereafter, 100 µL of each stock solution of EOs or terpenes was dispensed in 96-well microdilution plates (Corning®, Costar®, NY, USA) and 100 µL of each yeast inoculum was added. […] MICs were visually determined at the lowest concentration that produced visual inhibition compared to the growth control. […] The results were expressed as geometric means (GM) and ranges. As an antifungal susceptibility testing control, the activity of ITC and AMB against the reference strains C. krusei ATCC 6258 and C. parapsilosis ATCC 22019 was evaluated in all experiments following the CLSI standard M27, 4th Edition. […]
smiles,measurement,setting,value
"CCC(C)n1ncn(-c2ccc(N3CCN(c4ccc(OCC5COC(Cn6cncn6)(c6ccc(Cl)cc6Cl)O5)cc4)CC3)cc2)c1=O (stereo not shown) [ITC, itraconazole]",MIC,C. glabrata LMDM 34,1 µg/mL
same,MIC Range,C. glabrata LMDM 34,1 µg/mL
same,MIC Range,[1],0.12 µg/mL
same,MIC,[1],0.12 µg/mL
same,MIC,C. tropicalis ATCC 750,0.12 µg/mL
same,MIC Range,C. tropicalis ATCC 750,0.06 to 0.25 µg/mL
same,MIC Range,[2],>16 µg/mL
same,MIC,[2],> 16 µg/mL
same,MIC Range,C. krusei ATCC 6258,0.12 to 0.50 µg/mL
same,MIC,C. krusei ATCC 6258,0.28 µg/mL
same,MIC,C. albicans ATCC 64550,0.7 µg/mL
same,MIC Range,C. albicans ATCC 64550,0.5 to 1 µg/mL
same,MIC,C. albicans ATCC 10231,0.06 µg/mL
same,MIC Range,C. albicans ATCC 10231,0.03 to 0.125 µg/mL
same,MIC Range,C. lusitaniae MUM 17.08,0.03 to 0.06 µg/mL
same,MIC,C. lusitaniae MUM 17.08,0.04 µg/mL
same,MIC Range,C. auris Ca 17,0.12 to 0.5 µg/mL
same,MIC,C. auris Ca 17,0.25 µg/mL
same,MIC Range,C. auris Ca 32,0.25 to 0.50 µg/mL
same,MIC,C. auris Ca 32,0.35 µg/mL
same,MIC,C. auris Ca 10,0.09 µg/mL
same,MIC Range,C. auris Ca 10,0.06 to 0.12 µg/mL
same,MIC Range,C. auris Ca 45,0.06 to 0.12 µg/mL
same,MIC,C. auris Ca 45,0.04 µg/mL
same,MIC Range,C. auris Ca 41,0.03 to 0.12 µg/mL
same,MIC,C. auris Ca 41,0.06 µg/mL
same,MIC Range,C. auris CDC B11903,0.06 to 0.12 µg/mL
same,MIC,C. auris CDC B11903,0.04 µg/mL
same,MIC Range,C. auris Ca 46,0.06 to 0.12 µg/mL
same,MIC,C. auris Ca 46,0.04 µg/mL
same,MIC Range,C. auris Ca 9,0.03 to 0.12 µg/mL
same,MIC,C. auris Ca 9,0.06 µg/mL
same,MIC Range,C. auris Ca 1,0.03 to 0.12 µg/mL
same,MIC,C. auris Ca 1,0.06 µg/mL
same,MIC Range,[3],0.5 to 1 µg/mL
same,MIC,[3],0.7 µg/mL
same,MIC,[4],0.35 µg/mL
same,MIC Range,[4],0.25 to 0.50 µg/mL
same,MIC Range,[5],0.06 to 0.12 µg/mL
same,MIC,[5],0.09 µg/mL
C=C1CC/C=C(\C)CC[C@@H]2[C@@H]1CC2(C)C (relative stereo) [trans-β-caryophyllene],antifungal activity in screening against C. auris,C. auris,active against only some of the clinical isolates of C. auris
"CC[C@H](C)C[C@H](C)CCCCCCCCC(=O)N[C@H]1C[C@@H](O)[C@@H](NCCN)NC(=O)[C@@H]2[C@@H](O)CCN2C(=O)[C@H]([C@H](O)CCN)NC(=O)[C@H]([C@H](O)[C@@H](O)c2ccc(O)cc2)NC(=O)[C@@H]2C[C@@H](O)CN2C(=O)[C@H]([C@@H](C)O)NC1=O [CSF, caspofungin]",MIC,C. glabrata LMDM 34,8 µg/mL
same,MIC Range,C. glabrata LMDM 34,8 µg/mL
same,susceptibility category,C. glabrata LMDM 34; resistance confirmed,resistance
same,MIC Range,[1],1 µg/mL
same,MIC,[1],1 µg/mL
same,MIC,C. tropicalis ATCC 750,0.35 µg/mL
same,MIC Range,C. tropicalis ATCC 750,0.25 to 0.5 µg/mL
same,MIC Range,[2],0.5 µg/mL
same,MIC,[2],0.5 µg/mL
same,MIC Range,C. krusei ATCC 6258,1 µg/mL
same,MIC,C. krusei ATCC 6258,1 µg/mL
same,MIC,C. albicans ATCC 64550,0.35 µg/mL
same,MIC Range,C. albicans ATCC 64550,0.25 to 0.5 µg/mL
same,MIC,C. albicans ATCC 10231,0.18 µg/mL
same,MIC Range,C. albicans ATCC 10231,0.12 to 0.25 µg/mL
same,MIC Range,C. lusitaniae MUM 17.08,1 µg/mL
same,MIC,C. lusitaniae MUM 17.08,1 µg/mL
same,MIC Range,C. auris Ca 17,0.5 µg/mL
same,MIC,C. auris Ca 17,0.5 µg/mL
same,MIC Range,C. auris Ca 32,0.5 µg/mL
same,MIC,C. auris Ca 32,0.5 µg/mL
same,MIC,C. auris Ca 10,0.7 µg/mL
same,MIC Range,C. auris Ca 10,0.5 to 1 µg/mL
same,MIC Range,C. auris Ca 45,0.5 µg/mL
same,MIC,C. auris Ca 45,0.5 µg/mL
same,MIC Range,C. auris Ca 41,0.5 µg/mL
same,MIC,C. auris Ca 41,0.5 µg/mL
same,MIC Range,C. auris CDC B11903,0.5 µg/mL
same,MIC,C. auris CDC B11903,0.5 µg/mL
same,MIC Range,C. auris Ca 46,0.5 µg/mL
same,MIC,C. auris Ca 46,0.5 µg/mL
same,MIC Range,C. auris Ca 9,0.5 µg/mL
same,MIC,C. auris Ca 9,0.5 µg/mL
same,MIC Range,C. auris Ca 1,0.5 µg/mL
same,MIC,C. auris Ca 1,0.5 µg/mL
same,MIC Range,[3],2 µg/mL
same,MIC,[3],2 µg/mL
same,MIC,[4],1 µg/mL
same,MIC Range,[4],1 µg/mL
same,MIC Range,[5],1 µg/mL
same,MIC,[5],1 µg/mL
